Measurements published in patent publication EP2608671B1, “COMPOUNDS FOR TREATMENT OF CANCER” (Gtx, Inc., priority 2010, dated 2012).
Read-outs that look alike come from different tables or passages of the source.

What was measured:
B16-F1 = assay: SRB cell growth inhibition (cytotoxicity) assay; assay type: cell-based, mouse
Excerpt: (§1) The only compounds which belong to the invention are the ones falling under the scope of formula (XI).

A375 = assay: SRB cell growth inhibition (cytotoxicity) assay; assay type: cell-based, human
PC-3 = assay: cells
Excerpt: as §1
Cells were stained with SRB solution.
Cells. […] Cells between the third and fifth passages were used for experiments.
Cell growth inhibition studies. […] Cells were stained with sulphorhodamine B (SRB) solution.

[1] = test system: prostate cancer cell lines (LNCaP, DU 145, PC-3, PPC-1); assay: SRB cytotoxicity, prostate cancer cell panel (text summaries); assay type: cell-based; conditions: Homo sapiens, read-out: IC50 against prostate cancer cells
Excerpt: as §1

DU 145 = assay: cells; conditions: Homo sapiens, DU-145, 96 h, read-out: IC50 ± SEM (nM), DU 145
LNCaP = assay: cells; conditions: Homo sapiens, 96 h, read-out: IC50 ± SEM (nM), LNCaP
PPC-1 [2] = assay: cells; conditions: Homo sapiens, PPC-1, 96 h, read-out: IC50 ± SEM (nM), PPC-1
NCI/ADR-RES = assay: SRB growth inhibition, P-gp over-expressing MDR line; assay type: cell-based, human; conditions: for Resistance factor: NCI/ADR-RES vs OVCAR-8, 5760 min; for IC50: Homo sapiens, NCI/ADR-RES, P-gp over-expressed MDR cell line, Table 5A, read-out: IC50 (nM), NCI/ADR-RES
OVCAR-8 = assay: SRB growth inhibition, MDR model parent line; assay type: cell-based, human; conditions: Homo sapiens, OVCAR-8; Table 5A; read-out: IC50 (nM), OVCAR-8
PPC-1 [3] = test system: PPC-1
WM-164 = assay: SRB cell growth inhibition (cytotoxicity) assay; assay type: cell-based, human; conditions: Table 6A; read-out: IC50 (nM), WM164
[4] = Mus musculus, B16-F1, read-out: IC50 ± SEM (nM), B16-F1
[5] = Homo sapiens, A-375, 96 h, read-out: IC50 ± SEM (nM), A375
[6] = Homo sapiens, PC-3, 96 h, read-out: IC50 ± SEM (nM), PC-3
[7] = summary over LNCaP, PC-3, DU-145, PPC-1

**Q.** For `COc1cc(C(=O)c2cc(-c3ccccc3)ncn2)cc(OC)c1OC` [1b, (6-Phenylpyrimidin-4-yl)(3,4,5-trimethoxyphenyl)methanone], which IC50 (B16-F1; [4]) is on record?
**A.** > 30000 nM

**Q.** And the IC50 (A375; [5])?
**A.** > 30000 nM

**Q.** What about the IC50 (PC-3; [6]) of the same molecule?
**A.** 8300 nM

**Q.** And the IC50 ([1]; summary of Table 1)?
**A.** 3700 to 8300 nM

**Q.** What about the IC50 (DU 145) of the same molecule?
**A.** 6900 nM

**Q.** And the IC50 (LNCaP)?
**A.** 7000 nM

**Q.** And the IC50 (PPC-1 [2])?
**A.** 3700 nM

**Q.** How did the Resistance factor (NCI/ADR-RES) turn out when `COc1cc(C(=O)c2cccc(-c3ccccc3)n2)cc(OC)c1OC` [1c, (6-Phenylpyridin-2-yl)(3,4,5-trimethoxyphenyl)methanone] was run?
**A.** 0.4

**Q.** And the IC50 [1, 7]?
**A.** 12 to 35 nM

**Q.** How did the IC50 (B16-F1; [4]) turn out when `COc1cc(C(=O)c2ccc(-c3ccccc3)o2)cc(OC)c1OC` [1d, (5-Phenylfuran-2-yl)(3,4,5-trimethoxyphenyl)methanone] was run?
**A.** 151 ± 24 nM

**Q.** What about the IC50 (A375; [5]) of the same molecule?
**A.** 27 ± 8 nM

**Q.** What about the IC50 (PC-3; [6]) of the same molecule?
**A.** 21 nM

**Q.** What about the IC50 [1, 7] of the same molecule?
**A.** 12 to 35 nM

**Q.** What about the IC50 (DU 145) of the same molecule?
**A.** 35 nM

**Q.** What about the IC50 (LNCaP) of the same molecule?
**A.** 23 nM

**Q.** And the IC50 (PPC-1 [2])?
**A.** 20 nM

**Q.** What does the source list for `COc1cc(C(=O)c2cnc(-c3ccccc3)s2)cc(OC)c1OC` [1e, (2-Phenylthiazol-5-yl)(3,4,5-trimethoxyphenyl)methanone]?
**A.** IC50 (B16-F1; [4]): 12500 ± 5200 nM; IC50 (A375; [5]): 13600 ± 3800 nM; IC50 (PC-3; [6]): > 10000 nM; IC50 ([1]; summary of Table 1): > 10000 nM; IC50 (DU 145): > 10000 nM; IC50 (LNCaP): > 10000 nM; IC50 (PPC-1 [2]): > 10000 nM

**Q.** For `COc1cc(C(=O)c2csc(-c3ccccc3)c2)cc(OC)c1OC` [1f, (5-Phenylthiophen-3-yl)(3,4,5-trimethoxyphenyl)methanone], which IC50 (B16-F1; [4]) is on record?
**A.** 72 ± 15 nM

**Q.** What about the IC50 (A375; [5]) of the same molecule?
**A.** 15 ± 6 nM

**Q.** What about the IC50 (PC-3; [6]) of the same molecule?
**A.** 12 nM

**Q.** And the IC50 [1, 7]?
**A.** 12 to 35 nM

**Q.** What about the IC50 (DU 145) of the same molecule?
**A.** 26 nM

**Q.** What about the IC50 (PPC-1 [2]) of the same molecule?
**A.** 15 nM

**Q.** For `COc1cc(C(=O)N2CCC(c3ccccc3)CC2)cc(OC)c1OC` [1g, (4-Phenylpiperidin-1-yl)(3,4,5-trimethoxyphenyl)methanone], which IC50 (B16-F1; [4]) is on record?
**A.** > 30000 nM

**Q.** What about the IC50 (A375; [5]) of the same molecule?
**A.** > 30000 nM

**Q.** And the IC50 (PC-3; [6])?
**A.** > 20000 nM

**Q.** What about the IC50 ([1]; summary of Table 1) of the same molecule?
**A.** > 20000 nM

**Q.** What about the IC50 (DU 145) of the same molecule?
**A.** > 20000 nM

**Q.** What about the IC50 (LNCaP) of the same molecule?
**A.** > 20000 nM

**Q.** And the IC50 (PPC-1 [2])?
**A.** > 20000 nM

**Q.** For `COc1cc(C(=O)c2cc(-c3ccccc3)on2)cc(OC)c1OC` [1i, (5-Phenylisoxazol-3-yl)(3,4,5-trimethoxyphenyl)methanone], which IC50 (B16-F1; [4]) is on record?
**A.** > 30000 nM

**Q.** What about the IC50 (A375; [5]) of the same molecule?
**A.** > 30000 nM

**Q.** And the IC50 (PC-3; [6])?
**A.** > 10000 nM

**Q.** And the IC50 ([1]; summary of Table 1)?
**A.** > 10000 nM

**Q.** What about the IC50 (DU 145) of the same molecule?
**A.** > 10000 nM

**Q.** And the IC50 (LNCaP)?
**A.** > 10000 nM

**Q.** And the IC50 (PPC-1 [2])?
**A.** > 10000 nM

**Q.** What does the source list for `COc1cc(C(=O)c2csc(Nc3ccc(C)cc3)n2)cc(OC)c1OC` [5b, (2-(p-Tolylamino)thiazol-4-yl)(3,4,5-trimethoxyphenyl)methanone]?
**A.** IC50 (OVCAR-8): 28 nM; IC50 (NCI/ADR-RES): 21 nM; Resistance factor (NCI/ADR-RES): 0.8

**Q.** `COc1cc(C(=O)c2csc(Nc3ccc(F)cc3)n2)cc(OC)c1OC` [5c, (2-(p-Fluorophenylamino)thiazol-4-yl)(3,4,5-trimethoxyphenyl)methanone] was tested. Which IC50 (PC-3; [6]) did it give?
**A.** 43 ± 1 nM

**Q.** What about the IC50 (OVCAR-8) of the same molecule?
**A.** 44 ± 3 nM

**Q.** And the IC50 (NCI/ADR-RES)?
**A.** 25 ± 6 nM

**Q.** And the Resistance factor (NCI/ADR-RES)?
**A.** 0.6

**Q.** And the IC50 (DU 145)?
**A.** 63 ± 1 nM

**Q.** What about the IC50 (LNCaP) of the same molecule?
**A.** 41 ± 1 nM

**Q.** Which IC50 (PC-3; [6]) does the source give for `COc1cc(C(=O)c2c[nH]c(Nc3ccccc3)n2)cc(OC)c1OC` [5e, (2-(Phenylamino)-1H-imidazol-4-yl)(3,4,5-trimethoxyphenyl)methanone] here?
**A.** > 1000 nM

**Q.** And the IC50 [1, 7]?
**A.** > 1000 nM

**Q.** And the IC50 (DU 145)?
**A.** > 1000 nM

**Q.** What about the IC50 (LNCaP) of the same molecule?
**A.** > 1000 nM

**Q.** And the IC50 (PPC-1 [2])?
**A.** > 1000 nM

**Q.** For `COc1cc(C(=O)[C@H]2COC(c3ccccc3)=N2)cc(OC)c1OC` [35a, (2R)-(2-Phenyl-4,5-dihydro-oxazol-4-yl)-(3,4,5-trimethoxy-phenyl)-methanone], which IC50 (B16-F1; SRB assay, Tables 1, 2, 3, 5B, 5C, read-out: IC50 ± SEM (nM), B16-F1) is on record?
**A.** 6500 ± 800 nM

**Q.** And the IC50 (A375; SRB assay, 96 h, Tables 1, 2, 3, 5B, 5C, read-out: IC50 ± SEM (nM), A375)?
**A.** 500 ± 100 nM

**Q.** What about the IC50 (PPC-1 [3]; read-out: IC50 ± SEM (nM), PPC-1, SRB assay, 96 h, Tables 1, 2, 3, 5B, 5C) of the same molecule?
**A.** 1100 ± 100 nM

**Q.** Which IC50 (B16-F1; Table 6A, read-out: IC50 (nM), B16-F1) does the source give for “(1-(phenylsulfonyl)-2-(1-(phenylsulfonyl)-1H-indol-3-yl)-1H-imidazol-4-yl)(3,4,5-trimethoxyphenyl)methanone [17yaa]” here?
**A.** 539 nM

**Q.** And the IC50 (A375; Table 6A, read-out: IC50 (nM), A375)?
**A.** 481 nM

**Q.** And the IC50 (WM-164)?
**A.** 468 nM

**Q.** What about the IC50 (PC-3; read-out: IC50 (nM), PC-3, Table 6A) of the same molecule?
**A.** 148 nM

**Q.** What about the IC50 (PPC-1 [3]; read-out: IC50 (nM), PPC-1, Table 6A) of the same molecule?
**A.** 209 nM
